Reference: BindingDB's records for patent US11111253 (University of Pittsburgh, 2021)

Target: T1, Signal transducer and activator of transcription 1-alpha/beta (Homo sapiens, UniProt P42224)
T1 sequence (P42224 whole entry): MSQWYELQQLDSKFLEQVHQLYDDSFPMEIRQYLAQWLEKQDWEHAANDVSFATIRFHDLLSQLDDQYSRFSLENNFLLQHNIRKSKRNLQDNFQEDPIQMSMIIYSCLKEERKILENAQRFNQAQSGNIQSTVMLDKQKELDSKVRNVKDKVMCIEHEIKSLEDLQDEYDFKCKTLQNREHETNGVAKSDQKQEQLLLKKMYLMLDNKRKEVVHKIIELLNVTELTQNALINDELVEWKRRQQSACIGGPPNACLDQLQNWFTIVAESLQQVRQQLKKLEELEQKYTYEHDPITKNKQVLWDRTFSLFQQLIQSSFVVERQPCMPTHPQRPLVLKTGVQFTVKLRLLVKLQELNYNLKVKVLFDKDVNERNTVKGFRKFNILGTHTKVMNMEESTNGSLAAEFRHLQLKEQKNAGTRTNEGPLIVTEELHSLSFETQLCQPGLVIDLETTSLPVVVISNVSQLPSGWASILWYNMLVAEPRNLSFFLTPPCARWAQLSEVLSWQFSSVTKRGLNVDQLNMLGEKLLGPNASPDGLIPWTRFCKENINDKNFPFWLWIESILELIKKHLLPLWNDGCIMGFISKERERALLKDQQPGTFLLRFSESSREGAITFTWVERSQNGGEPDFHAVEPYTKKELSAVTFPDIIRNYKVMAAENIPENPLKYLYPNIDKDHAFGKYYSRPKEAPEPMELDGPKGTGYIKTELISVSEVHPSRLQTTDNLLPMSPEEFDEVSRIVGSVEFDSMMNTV
Experiment: Bioassay
Procedure: Compound samples (in 3-5 mg quantities) were evaluated in a variety of assays. All compound submissions were fully characterized (1H, 13C, IR, FIRMS), satisfied purity criteria (≥95% LC/MC, ELS).

Row | IC50 [µM] | SMILES
1 | > 50 | COc1ccc(C2=Nn3c(nnc3-c3cc(-c4ccccc4)n[nH]3)SC2)cc1 [US11111253, Compound 8b]
2 | > 50 | COc1ccc(C2=Nn3c(nnc3-c3cc(-c4ccccc4)n[nH]3)SC2CC(C)C)cc1 (stereo not drawn) [US11111253, Compound 28]
3 | > 50 | CC(C)CC1Sc2nnc(-c3[nH]nc4c3CCC4)n2N=C1c1ccc(Cl)c(Cl)c1 (stereo not drawn) [US11111253, Compound 27]
